Data: ChEMBL document CHEMBL5370592, “Synthesis and Structure-Activity Relationships of a New Class of Oxadiazoles Targeting DprE1 as Antitubercular Agents” (ACS Med Chem Lett, 2023)

Key:
Assay type in all cases: functional
[1] = tested on: Mycobacterium tuberculosis; test: Antitubercular activity against isoniazid/ofloxacin/prothionamide-resistant Mycobacterium tuberculosis NIH1B127 assessed as inhibition of bacterial growth incubated for 2 weeks; conditions: NIH1B127, 336 h
[2] = tested on: Mycobacterium tuberculosis; test: Antitubercular activity against isoniazid/prothionamide-resistant Mycobacterium tuberculosis NIHB140 assessed as inhibition of bacterial growth incubated for 2 weeks; conditions: NIHB140, 336 h
[3] = tested on: Mycobacterium tuberculosis; test: Antitubercular activity against isoniazid/rifampicin/para-aminosalicylic acid/ofloxacin/prothionamide-resistant Mycobacterium tuberculosis NIHB67 assessed as inhibition of bacterial growth incubated for 2 weeks; conditions: NIHB67, 336 h
[4] = tested on: Mycobacterium tuberculosis; test: Antitubercular activity against isoniazid/rifampicin/ethambutol/streptomycin-resistant Mycobacterium tuberculosis K21b00MR assessed as inhibition of bacterial growth incubated for 2 weeks; conditions: 336 h
[5] = tested on: Mycobacterium tuberculosis; test: Antitubercular activity against isoniazid/ethionamide/D-cycloserine-resistant Mycobacterium tuberculosis NIH_G17R assessed as inhibition of bacterial growth incubated for 2 weeks; conditions: 336 h
[6] = tested on: Mycobacterium tuberculosis; test: Antitubercular activity against isoniazid/rifampicin/ethambutol/pyrazinamid/rifabutin-resistant Mycobacterium tuberculosis K26b00MR assessed as inhibition of bacterial growth incubated for 2 weeks; conditions: 336 h
[7] = tested on: Mycobacterium tuberculosis; test: Antitubercular activity against isonizaid/rifampicin/ethambutol/rifabutin/D-cycloserine-resistant Mycobacterium tuberculosis NIH_G21R assessed as inhibition of bacterial growth incubated for 2 weeks; conditions: 336 h
[8] = tested on: Mycobacterium tuberculosis; test: Antitubercular activity against isoniazid/rifampicin/para-aminosalicylic acid/pyrazinamide/prothionamide/rifabutin-resistant Mycobacterium tuberculosis NIHB68 assessed as inhibition of bacterial growth incubated for 2 weeks; conditions: NIHB68, 336 h
[9] = tested on: Mycobacterium tuberculosis; test: Antitubercular activity against isoniazid/rifampicin/ethambutol/pyrazinamide/streptomycin/kanamycin-resistant Mycobacterium tuberculosis K20b00MR assessed as inhibition of bacterial growth incubated for 2 weeks; conditions: 336 h
[10] = tested on: Mycobacterium tuberculosis; test: Antitubercular activity against extensively drug-resistant Mycobacterium tuberculosis 028K111 assessed as inhibition of bacterial growth incubated for 2 weeks; conditions: 028K111, 336 h
[11] = tested on: Mycobacterium tuberculosis; test: Antitubercular activity against isoniazid/rifampicin/ethambutol/para-aminosalicylic acid/kanamycin/ofloxacin/prothionamide-resistant Mycobacterium tuberculosis Kb019 assessed as inhibition of bacterial growth incubated for 2 weeks; conditions: Kb019, 336 h
[12] = tested on: Mycobacterium tuberculosis; test: Antitubercular activity against isoniazid/rifampicin/pyrazinamide/prothionamide/rifabutin/ofloxacin/moxifloxacin/levofloxacin-resistant Mycobacterium tuberculosis NIHB188 assessed as inhibition of bacterial growth incubated for 2 weeks; conditions: NIHB188, 336 h
[13] = tested on: Mycobacterium tuberculosis; test: Antitubercular activity against isoniazid/rifampicin/moxifloxacin-resistant Mycobacterium tuberculosis NIH_G367DR assessed as inhibition of bacterial growth incubated for 2 weeks; conditions: 336 h
[14] = tested on: Mycobacterium tuberculosis; test: Antitubercular activity against isoniazid/ethambutol/prothionamide/D-cycloserine/ofloxacin/levofloxacin/pyrazinamide-resistant Mycobacterium tuberculosis NIH1B314 assessed as inhibition of bacterial growth incubated for 2 weeks; conditions: NIH1B314, 336 h
[15] = tested on: Mycobacterium tuberculosis; test: Antitubercular activity against extensively drug-resistant Mycobacterium tuberculosis clinical strain 00202293 assessed as inhibition of bacterial growth incubated for 2 weeks; conditions: Mycobacterium tuberculosis, 00202293, 336 h
[16] = tested on: Mycobacterium tuberculosis; test: Antitubercular activity against isoniazid/rifampicin/ethambutol/rifabutin-resistant Mycobacterium tuberculosis K18b01MR assessed as inhibition of bacterial growth incubated for 2 weeks; conditions: 336 h
[17] = tested on: Mycobacterium tuberculosis; test: Antitubercular activity against isoniazid/ethionamide-resistant Mycobacterium tuberculosis NIH1B21 assessed as inhibition of bacterial growth incubated for 2 weeks; conditions: NIH1B21, 336 h
[18] = tested on: Mycobacterium tuberculosis; test: Antitubercular activity against isoniazid/rifampicin/kanamycin/pyrazinamide/capreomycin/amikacin/prothionamide/D-cycloserine-resistant Mycobacterium tuberculosis K32b00MR assessed as inhibition of bacterial growth incubated for 2 weeks; conditions: 336 h
[19] = tested on: Mycobacterium tuberculosis; test: Antitubercular activity against isoniazid/rifampicin/streptomycin-resistant Mycobacterium tuberculosis clinical strain 01291696 assessed as inhibition of bacterial growth incubated for 2 weeks; conditions: Mycobacterium tuberculosis, 01291696, 336 h
[20] = tested on: Mycobacterium tuberculosis; test: Antitubercular activity against isoniazid/rifampicin/ethambutol/rifabutin-resistant Mycobacterium tuberculosis K22b00MR assessed as inhibition of bacterial growth incubated for 2 weeks; conditions: 336 h
[21] = tested on: Mycobacterium tuberculosis; test: Antitubercular activity against ethambutol/D-cycloserine-resistant Mycobacterium tuberculosis NIH_G11R assessed as inhibition of bacterial growth incubated for 2 weeks; conditions: 336 h
[22] = tested on: Mycobacterium tuberculosis; test: Antitubercular activity against isoniazid/rifampicin/ethambutol/pyrazinamide/streptomycin/kanamycin/para-aminosalicylic acid/prothionamide-resistant Mycobacterium tuberculosis K33b00MR assessed as inhibition of bacterial growth incubated for 2 weeks; conditions: 336 h
[23] = tested on: Mycobacterium tuberculosis; test: Antitubercular activity against isoniazid/rifampicin/ethambutol/pyrazinamide/prothionamide/ofloxacin/levofloxacin/rifabutin-resistant Mycobacterium tuberculosis NIHB270 assessed as inhibition of bacterial growth incubated for 2 weeks; conditions: NIHB270, 336 h
[24] = tested on: Mycobacterium tuberculosis; test: Antitubercular activity against isonizaid/rifampicin/ethionamide/prothionamide-resistant Mycobacterium tuberculosis NIHA48 assessed as inhibition of bacterial growth incubated for 2 weeks; conditions: NIHA48, 336 h
[25] = tested on: Mycobacterium tuberculosis; test: Antitubercular activity against isoniazid/rifampicin/ethambutol/pyrazinamide/rifabutin/prothionamide-resistant Mycobacterium tuberculosis NIHB302 assessed as inhibition of bacterial growth incubated for 2 weeks; conditions: NIHB302, 336 h
[26] = tested on: Mycobacterium tuberculosis; test: Antitubercular activity against extensively drug-resistant Mycobacterium tuberculosis 026K111 assessed as inhibition of bacterial growth incubated for 2 weeks; conditions: 026K111, 336 h
[27] = tested on: Mycobacterium tuberculosis; test: Antitubercular activity against isoniazid/rifampicin/ethambutol/streptomycin/D-cycloserine/rifabutin-resistant Mycobacterium tuberculosis NIH_G19R assessed as inhibition of bacterial growth incubated for 2 weeks; conditions: 336 h
[28] = tested on: Mycobacterium tuberculosis; test: Antitubercular activity against isoniazid/rifampicin/ethambutol/rifabutin-resistant Mycobacterium tuberculosis NIH_G10R assessed as inhibition of bacterial growth incubated for 2 weeks; conditions: 336 h
[29] = tested on: Mycobacterium tuberculosis; test: Antitubercular activity against ethionamide-resistant Mycobacterium tuberculosis NIH_G145 assessed as inhibition of bacterial growth incubated for 2 weeks; conditions: NIH_G145, 336 h
[30] = tested on: Mycobacterium tuberculosis; test: Antitubercular activity against isoniazid/rifampicin/moxifloxacin-resistant Mycobacterium tuberculosis NIH_G76MR assessed as inhibition of bacterial growth incubated for 2 weeks; conditions: 336 h
[31] = tested on: Mycobacterium tuberculosis; test: Antitubercular activity against extensively drug-resistant Mycobacterium tuberculosis NIH1B178 assessed as inhibition of bacterial growth incubated for 2 weeks; conditions: NIH1B178, 336 h
[32] = tested on: Mycobacterium tuberculosis; test: Antitubercular activity against isoniazid/rifampicin/streptomycin/para-aminosalicylic acid/ofloxacin-resistant Mycobacterium tuberculosis K29b00MR assessed as inhibition of bacterial growth incubated for 2 weeks; conditions: 336 h
[33] = tested on: Mycobacterium tuberculosis; test: Antitubercular activity against streptomycin/D-cycloserine-resistant Mycobacterium tuberculosis NIH_G169 assessed as inhibition of bacterial growth incubated for 2 weeks; conditions: NIH_G169, 336 h
[34] = tested on: Mycobacterium tuberculosis; test: Antitubercular activity against isonizaid/rifampicin/streptomycin/ethionamide-resistant Mycobacterium tuberculosis NIH_G79 assessed as inhibition of bacterial growth incubated for 2 weeks; conditions: NIH_G79, 336 h
[35] = tested on: Mycobacterium tuberculosis; test: Antitubercular activity against isonizaid/rifampicin/rifabutin-resistant Mycobacterium tuberculosis NIHA37 assessed as inhibition of bacterial growth incubated for 2 weeks; conditions: NIHA37, 336 h
[36] = tested on: Mycobacterium tuberculosis; test: Antitubercular activity against isonizaid/rifampicin/ethambutol/rifabutin-resistant Mycobacterium tuberculosis NIH_G22R assessed as inhibition of bacterial growth incubated for 2 weeks; conditions: 336 h
[37] = tested on: Mycobacterium tuberculosis; test: Antitubercular activity against extensively drug-resistant Mycobacterium tuberculosis NIHB13 assessed as inhibition of bacterial growth incubated for 2 weeks; conditions: NIHB13, 336 h
[38] = tested on: Mycobacterium tuberculosis; test: Antitubercular activity against extensively drug-resistant Mycobacterium tuberculosis NIH1B250 assessed as inhibition of bacterial growth incubated for 2 weeks; conditions: NIH1B250, 336 h
[39] = tested on: Mycobacterium tuberculosis; test: Antitubercular activity against isoniazid/prothionamide-resistant Mycobacterium tuberculosis NIHA38 assessed as inhibition of bacterial growth incubated for 2 weeks; conditions: NIHA38, 336 h
[40] = tested on: Mycobacterium tuberculosis; test: Antitubercular activity against extensively drug-resistant Mycobacterium tuberculosis clinical strain X37b00XR assessed as inhibition of bacterial growth incubated for 2 weeks; conditions: 336 h
[41] = tested on: Mycobacterium tuberculosis; test: Antitubercular activity against rifampicin/isoniazid/streptomycin/prothionamide-resistant Mycobacterium tuberculosis NIHB43 assessed as inhibition of bacterial growth incubated for 2 weeks; conditions: NIHB43, 336 h
[42] = tested on: Mycobacterium tuberculosis; test: Antitubercular activity against isonizaid/rifampicin/ethambutol/rifabutin-resistant Mycobacterium tuberculosis NIH_G269DR assessed as inhibition of bacterial growth incubated for 2 weeks; conditions: 336 h
[43] = tested on: Mycobacterium tuberculosis; test: Antitubercular activity against isoniazid/rifampicin/ethambutol/pyrazinamid/rifabutin/prothionamide-resistant Mycobacterium tuberculosis K25b00MR assessed as inhibition of bacterial growth incubated for 2 weeks; conditions: 336 h

Measured: MIC

O=C(C1CCN(c2nnc(-c3ccccc3)o2)CC1)N1CCC(Cc2ccccc2)CC1
0.6 µM: [2] | [5] | [12] | [21] | [28]
2.3 µM: [7] | [22] | [38]
1.56 µM: [10] | [15] | [16] | [17] | [18] | [20] | [23] | [24] | [26] | [27] | [34]
0.78 µM: [3] | [19] | [25] | [31] | [37] | [41]
4.7 µM: [9] | [11]
3.13 µM: [13] | [14] | [40]
0.39 µM: [1] | [8] | [33] | [35] | [39]
1.2 µM: [4] | [6] | [29] | [30] | [32] | [36] | [42] | [43]

COc1nc2ccc(Br)cc2cc1[C@@H](c1ccccc1)[C@@](O)(CCN(C)C)c1cccc2ccccc12 [BEDAQUILINE]
0.05 µM: [2] | [19] | [31] | [35] | [37] | [39] | [41]
0.2 µM: [26] | [29] | [32]
0.1 µM: [1] | [5] | [6] | [8] | [18] | [24] | [27] | [28] | [36] | [40] | [42] | [43]
< 0.02 µM: [9] | [13] | [14] | [30]
0.3 µM: [3]
0.15 µM: [10] | [20] | [21] | [33]
0.02 µM: [7] | [15]
0.04 µM: [12] | [16] | [25]
0.07 µM: [4] | [11] | [17] | [22] | [23] | [34] | [38]
